From US8288139B2, “Sulfotransferase inhibitors” (Seikagaku Corporation, priority 2002, dated 2012)

Molecular target: T1, human-derived GalNAc4S6ST (Homo sapiens, UniProt Q7LFX5)
T1 construct: made in house
T1 sequence (Q7LFX5 1-561): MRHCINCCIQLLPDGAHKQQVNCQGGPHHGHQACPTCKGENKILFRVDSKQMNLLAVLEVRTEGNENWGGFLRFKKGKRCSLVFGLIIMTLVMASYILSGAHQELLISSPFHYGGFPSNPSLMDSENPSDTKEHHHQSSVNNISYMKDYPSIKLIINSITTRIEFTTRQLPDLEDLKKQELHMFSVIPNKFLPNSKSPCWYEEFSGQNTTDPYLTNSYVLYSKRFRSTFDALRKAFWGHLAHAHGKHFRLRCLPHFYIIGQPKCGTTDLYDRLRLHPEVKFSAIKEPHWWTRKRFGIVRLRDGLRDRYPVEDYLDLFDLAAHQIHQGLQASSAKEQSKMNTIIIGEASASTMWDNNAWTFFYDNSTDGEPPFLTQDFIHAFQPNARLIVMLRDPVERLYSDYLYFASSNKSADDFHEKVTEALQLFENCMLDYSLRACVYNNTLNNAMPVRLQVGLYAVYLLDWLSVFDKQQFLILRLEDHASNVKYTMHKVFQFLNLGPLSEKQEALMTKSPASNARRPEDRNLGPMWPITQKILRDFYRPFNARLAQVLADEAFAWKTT
Assay: Inhibition of GalNAc4S6ST enzyme activity ([35S]PAPS sulfate transfer to chondroitin sulfate A)
Format: biochemical
Settings: for strength of inhibitory activity upon GalNAc4S6ST, α type and β type of the same formula compared: Substance 1 vs 2, 3 vs 4, 5 vs 6, 50, 125 or 250 nmol in 50 μl reaction; for inhibitory activity upon GalNAc4S6ST (relative value of the enzyme reaction, system without substance = 100%): substance added at 50 nmol, 125 nmol or 250 nmol to 50 μl reaction, 37° C., 20 minutes, values only in FIG. 1-3
Description: The enzyme activity was measured by modifying the method described in J. Biol. Chem., 276, 43894-43900 (2001). As the standard reaction solution, 2.5 μmol of imidazole-HCl (pH 6.8), 0.5 μmol of CaCl2, 1 μmol of reduced type glutathione, 25 nmol in galactosamine equivalent of chondroitin sulfate A (derived from whale cartilage, manufactured by Seikagaku Corporation), 50 pmol of [^35S]PAPS (active sulfate: about 5.0×10^5 cpm: prepared according to Anal Biochem., 148, 303-310 (1985)), and human-derived GalNAc4S6ST prepared according to the method described in J. Biol. Chem., 276, 43894-43900 (2001) were added to 50 μl. The reaction was started by adding each of Substance 1 of the present invention, Substance 2 of the present invention, Substance 3 of the present invention, Substance 4 of the present invention, Substance 5 of the present invention and Substance 6 of the present invention to this reaction system to give a final concentration of 50 nmol, 125 nmol or 250 nmol.
The reaction was carried out by incubating the reaction solution at 37° C. for 20 minutes, and the reaction was terminated by heating the reaction tubes in boiling water for 1 minute. After termination of the reaction, 3 volumes of ethanol containing 1.3% potassium acetate was added thereto to thereby precipitate the ^35S-labeled glycosaminoglycan, followed by gel chromatography using a high performance desalting column according to the method described in J. Biol. Chem., 268, 21968-21974 (1993), and then the radioactivity was measured by using a scintillation counter. A reaction system to which the enzyme was not added was used as the negative control.
By using the enzyme activity of a system to which the substance of the present invention was not added as the positive control and regarding it as 100%, relative values of the enzyme reaction in a system to which the substance of the present invention was added were calculated (Substance 1 of the present invention and Substance 2 of the present invention: FIG. 1, Substance 3 of the present invention and Substance 4 of the present invention: FIG. 2, Substance 5 of the present invention and Substance 6 of the present invention: FIG. 3).

CC(=O)NC1[C@H](Oc2ccccc2)OC(COS(=O)(=O)O)[C@H](O)[C@@H]1O (stereo partly shown) [Substance 2]
strength of inhibitory activity upon GalNAc4S6ST, α type and β type of the same formula compared: particularly strong | inhibitory activity upon GalNAc4S6ST (relative value of the enzyme reaction, system without substance = 100%): inhibitory activity was observed

CC(=O)NC1[C@H](Oc2ccccc2)OC(CO)[C@H](OS(=O)(=O)O)[C@@H]1O (stereo partly shown) [Substance 6]
strength of inhibitory activity upon GalNAc4S6ST, α type and β type of the same formula compared: stronger inhibitory activity

CC(=O)NC1[C@@H](Oc2ccccc2)OC(COS(=O)(=O)O)[C@H](O)[C@@H]1O (stereo partly shown) [Substance 1]
inhibitory activity upon GalNAc4S6ST (relative value of the enzyme reaction, system without substance = 100%): inhibitory activity was observed
